Reference: patent publication US9809542B2, “Spiroheterocyclically substituted tetramic acid derivatives” (BAYER INTELLECTUAL PROPERTY GMBH, priority 2010, dated 2017)

What was measured:
Assay type in all cases: in vivo
[1] = tested on: larva of the mustard beetle (Phaedon cochleariae); test: Phaedon test (PHAECO spray treatment); settings: application rate 500 g/ha, Chinese cabbage leaf discs, after 7 days
Protocol: Phaedon Test ([…] Spray Treatment) Solvents: 78.0 parts by weight of acetone • • 1.5 parts by weight of dimethylformamide Emulsifier: 0.5 part by weight of alkylaryl polyglycol ether To produce a suitable preparation of active compound, one part by weight of active compound is mixed with the stated amounts of solvents and emulsifier, and the concentrate is diluted with emulsifier-containing water to the desired concentration. Discs of Chinese cabbage (Brassica pekinensis) are sprayed with an active compound preparation of the desired concentration and, after drying, populated with larva of the mustard beetle (Phaedon cochleariae).

[2] = tested on: green peach aphid (Myzus persicae); test: Myzus test (MYZUPE spray treatment); settings: application rate 500 g/ha, Chinese cabbage leaf discs, after 6 days
Protocol: Myzus Test (MYZUPE Spray Treatment)
Solvents: 78 parts by weight of acetone
• 1.5 parts by weight of dimethylformamide Emulsifier: 0.5 part by weight of alkylaryl polyglycol ether
To produce a suitable preparation of active compound, 1 part by weight of active compound is mixed with the stated amounts of solvents and emulsifier, and the concentrate is diluted with emulsifier-containing water to the desired concentration. Discs of Chinese cabbage (Brassica pekinensis) which are infested by all stages of the green peach aphid (Myzus persicae) are sprayed with an active compound preparation of the desired concentration. After 6 days, the effect in % is determined. 100% means that all aphids have been killed; 0% means that none of the aphids have been killed.

Boophilus microplus = Boophilus microplus test (BOOPMI injection); settings: application rate 20 μg/animal; injection into the abdomen; after 7 days
Protocol: Boophilus microplus Test (BOOPMI Injection)
(§1) Solvent: Dimethyl sulphoxide
To produce a suitable preparation of active compound, 10 mg of active compound are mixed with 0.5 ml of solvent and the concentrate is diluted with solvent to the desired concentration. The solution of active compound is injected into the abdomen (Boophilus microplus) and the animals are transferred into dishes and stored in a climatized room. The activity is monitored for deposition of fertile eggs.
After 7 days, the effect in % is determined. 100% means that none of the ticks has laid any fertile eggs.

Lucilia cuprina larva = test: Lucilia cuprina test (LUCICU); settings: application rate 100 ppm; treated horse meat; after 2 days
Protocol: Lucilia cuprina Test (LUCICU)
as §1
To produce a suitable preparation of active compound, 10 mg of active compound are mixed with 0.5 ml of dimethyl sulphoxide and the concentrate is diluted with water to the desired concentration. Containers containing horse meat treated with the active compound preparation of the desired concentration are populated with about 20 Lucilia cuprina larva.
After 2 days, the kill in % is determined. 100% means that all larva have been killed; 0% means that none of the larva have been killed.

[3] = tested on: green peach aphid (Myzus persicae); test: Myzus persicae test, activity boost by ammonium salts in combination with penetrants; settings: bell pepper plants; for Kill rate after 6 days: no additive
Protocol: Example 9: Activity Boost by Ammonium Salts in Combination with Penetrants
(§2) Solvent: 7 parts by weight of dimethylformamide
(§3) Emulsifier: 2 parts by weight of alkylaryl polyglycol ether
(§4) To produce a suitable preparation of active compound, 1 part by weight of active compound is mixed with the stated amounts of solvent and emulsifier, and the concentrate is diluted with water to the desired concentration. For application with ammonium salts and penetrants (rapeseed oil methyl ester 500 EW) these are in each case added in a concentration of 1000 ppm of a.i. to the spray liquor.
Bell pepper plants (Capsicum annuum) heavily infested by the green peach aphid (Myzus persicae) are sprayed to runoff point with the preparation of active compound at the desired concentration. After the desired period of time, the kill in % is determined. 100% means that all animals have been killed; 0% means that none of the animals have been killed.

[4] = tested on: cotton aphid (Aphis gossypii); test: Aphis gossypii test; settings: cotton plants; for Kill rate after 6 days: no additive
Protocol: as §2, §3
as §4, with “diluted with emulsifier-containing water to” for “diluted with water to”, “oil methyl esters 500 EW)” for “oil methyl ester 500 EW)”
Cotton plants (Gossypium hirsutum) which are heavily infested by the cotton aphid (Aphis gossypii) are sprayed to runoff point with the preparation of active compound at the desired concentration.
After the desired period of time, the kill in % is determined. 100% means that all aphids have been killed; 0% means that none of the aphids have been killed.

Compound | efficacy (effect in %, beetle larva killed) [1] [%] | efficacy (effect in %, aphids killed) [2] [%] | efficacy (effect in %, 100% = none of the ticks has laid any fertile eggs) (Boophilus microplus) [%] | efficacy (kill in %) (Lucilia cuprina larva) [%] | Kill rate after 6 days, +AS (1000 ppm) ([3]; 4 ppm) [%] | Kill rate after 6 days, +RME (1000 ppm) ([3]; 4 ppm) [%] | Kill rate after 6 days, +RME + AS (1000 ppm each) ([3]; 4 ppm) [%] | Kill rate after 6 days ([3]; 4 ppm) [%] | Kill rate after 6 days, +AS (1000 ppm) ([4]; 20 ppm) [%] | Kill rate after 6 days, +RME (1000 ppm) ([4]; 20 ppm) [%] | Kill rate after 6 days, +RME + AS (1000 ppm each) ([4]; 20 ppm) [%] | Kill rate after 6 days ([4]; 20 ppm) [%] | further results
CON1CCC2(CC1)NC(=O)C(c1c(C)ccc(-c3ccc(F)cc3)c1C)=C2O [I-a-1] | 83 | 90 | 95 | 90 | 30 | 55 | 100 | 0 | 40 | 55 | 100 | 0 | Kill rate after 6 days, +AS (1000 ppm) ([3]; 20 ppm): 90%; Kill rate after 6 days, +RME (1000 ppm) ([3]; 20 ppm): 95%; Kill rate after 6 days, +RME + AS (1000 ppm each) ([3]; 20 ppm): 100%; Kill rate after 6 days ([3]; 20 ppm): 60%
CCON1CCC2(CC1)NC(=O)C(c1c(C)ccc(-c3ccc(F)cc3)c1C)=C2O [I-a-2] | 100 | 100 | 90 | 90 | 20 | 95 | 95 | 0 | 25 | 20 | 90 | 0 | Kill rate after 6 days, +AS (1000 ppm) ([3]; 0.8 ppm): 0%; Kill rate after 6 days, +RME (1000 ppm) ([3]; 0.8 ppm): 0%; Kill rate after 6 days, +RME + AS (1000 ppm each) ([3]; 0.8 ppm): 40%; Kill rate after 6 days ([3]; 0.8 ppm): 0%; Kill rate after 6 days, +AS (1000 ppm) ([4]; 4 ppm): 0%; Kill rate after 6 days, +RME (1000 ppm) ([4]; 4 ppm): 0%; Kill rate after 6 days, +RME + AS (1000 ppm each) ([4]; 4 ppm): 45%; Kill rate after 6 days ([4]; 4 ppm): 0%
